This note sets out measurements from paper PMC9313321 (Biomedicines, 2022).

Where “and” joins values, the source holds several entries; their conditions need not be identical. Equal entries are not always repeated.

In experiment [1] the target is equine butyrylcholinesterase (eqBChE) (Equus caballus, UniProt P81908). Description: biochemical. The conditions noted are these: for SI (selectivity index): IC50 (AChE)/IC50 (BChE), eeAChE and eqBChE; for IC50: eqBChE, 15 min pre-incubation, pH 8.00, read-out: BChE Inhib IC50. As for the experimental part:
(§1) The inhibition of electric eel acetylcholinesterase (eeAChE) and equine butyrylcholinesterase (eqBChE), both obtained from Sigma-Aldrich (Burlington, MA, USA), was studied using an adaptation of Elmman’s method, as previously described. For this, tris(hydroxymethyl)aminomethane (TRIS) 50 mM buffer at pH = 8.00, 4-(2-hydroxyethyl)-1-piperazine-ethanesulfonic acid (HEPES) 50 mM buffer at pH = 8.00 and HEPES 50 mM buffer at pH = 8.00 with NaCl 50 mM and MgCl2 20 mM were prepared. […] Working solutions of AChI and BChI were prepared daily by the proper dilution of the stock solutions in distilled water. A working solution of 5,5′-dithiobis-(2-nitrobenzoic acid) (DTNB) 3 mM in HEPES (NaCl, MgCl2) was prepared daily and kept under darkness. Stock solutions of eeAChE and eqBChE were prepared by dissolving the lyophilized powder enzyme in 10 mL of TRIS buffer under ice and they were divided into aliquots of 50 and 5 UN mL^−1 that were stored at −20 °C until needed. Stock solutions of 1 mg of each ligand in 1 mL MeOH (with 20% of DMSO) were prepared and working solutions for each ligand were obtained by the corresponding dilution from the stock solutions. A control measurement with 5 replicates (without ligand) and a calibration curve of 5 points with 3 replicates per point was derived. […] A blank solution containing HEPES (399 μL) and MeOH (50 μL) was prepared at the same time. […] The experiments were performed twice.

In experiment [2] the target is T1, electric eel acetylcholinesterase (eeAChE) (Electrophorus electricus, UniProt O42275).
T1 construct: purchased Sigma-Aldrich
T1 sequence (O42275 24-633): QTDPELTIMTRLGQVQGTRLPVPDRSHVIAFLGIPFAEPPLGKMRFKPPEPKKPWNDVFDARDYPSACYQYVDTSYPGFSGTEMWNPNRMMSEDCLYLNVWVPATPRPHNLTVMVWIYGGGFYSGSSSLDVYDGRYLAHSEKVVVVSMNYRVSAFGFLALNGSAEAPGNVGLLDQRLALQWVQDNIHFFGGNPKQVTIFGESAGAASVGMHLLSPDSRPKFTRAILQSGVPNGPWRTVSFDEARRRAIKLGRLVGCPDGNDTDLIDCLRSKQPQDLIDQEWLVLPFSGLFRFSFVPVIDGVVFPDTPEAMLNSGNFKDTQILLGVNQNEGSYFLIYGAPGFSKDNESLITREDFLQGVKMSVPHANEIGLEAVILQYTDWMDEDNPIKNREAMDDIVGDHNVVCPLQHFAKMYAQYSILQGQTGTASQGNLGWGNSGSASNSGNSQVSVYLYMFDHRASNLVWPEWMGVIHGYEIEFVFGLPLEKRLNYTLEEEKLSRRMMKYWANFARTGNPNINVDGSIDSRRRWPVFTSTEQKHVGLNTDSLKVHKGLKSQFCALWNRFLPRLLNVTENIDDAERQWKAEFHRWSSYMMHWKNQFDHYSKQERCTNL
Description: biochemical. As to the method: as §1

Experiment [3] concerns the target T2, Aβ42 fibrils (Homo sapiens, UniProt P05067).
T2 construct: Beta-amyloid protein, fragment 1-42; purchased Sigma-Aldrich
Description: TEM assay of Aβ42 fibrils in the absence of Cu(II). Type of experiment: biochemical. The conditions noted are these: 48 h 37 °C; for Aβ42 fibril width / Reduction of fibril width vs Aβ42 alone: TEM; for Aβ42 fibril width: CAβ42 = CL = 50 µM, Aβ42 alone 4.9 ± 0.2 nm; for Reduction of fibril width vs Aβ42 alone: 50 µM. As to the method:
To perform the TEM assays, commercial Aβ42 purchased from Sigma-Aldrich was pre-treated with pure HFIP, a beta-sheet disruptor, to obtain homogeneous and monomeric Aβ42 [54]. Then, 222 µL of HFIP was added to 1 mg of Aβ42, after which the mixture was vortexed and aliquoted into Eppendorfs. The Eppendorfs were placed in a SpeedVac at 45 °C for 30 min until all HFIP was evaporated. Pre-treated Aβ42 was stored at −20 °C until use. To start the amyloid incubations, pre-treated Aβ42 was equilibrated at room temperature for 30 min. A solution of 5 mM was obtained by dissolution in DMSO and sonication for 5 min. Subsequently, 10 mM HCl was added to obtain a working Aβ42 solution of 200 µM. Stock solutions of Cu(II) and RIV–BIM compounds (4a–d, 5a,b and 5d) at 200 µM were prepared on the same day and working solutions of Aβ42, Aβ42 + Cu(II), Aβ42 + RIV–BIM and Aβ42 + Cu(II) + RIV–BIM (CAβ42 = CCu = CL = 50 µM) were prepared by diluting stock solutions in 10 mM HCl. Working solutions were incubated for 48 h at 37 °C before being analyzed by TEM. Samples were negatively stained with uranyl acetate 2% (w/v) and analyzed at 100 kv with a JEOL JEM 1400 Plus transmission electron microscope. Fibrils of Aβ42 alone were compared with Aβ42 + RIV–BIM fibrils, and fibrils of Aβ42 + Cu(II) were compared with Aβ42 + Cu(II) + RIV–BIM in order to evaluate the inhibition of the amyloid aggregation, and the widths and lengths of fibrils were measured for each sample. The ImageJ program was used to measure the fibrils (n = 200).
To perform the Aβ42 aggregation assays by TEM, fibrils were incubated using a fluorescence procedure previously described.
Amyloid fibrils remained disaggregated under the effect of the RIV–BIM compounds after 48 h of incubation. […] For each of the performed assays, fibril width was measured, and the results are graphed in Figure 5. Aβ42 fibril width in the absence of Cu(II) (Figure 5a) was 4.9 ± 0.2 nm, and it was modified in the presence of all RIV–BIM compounds: compound 4d was the only one that widened amyloid fibrils (6.7 ± 0.3 nm), while the rest of the compounds narrowed them (3.3–4.5 nm).

T2 sequence (P05067 672-713 limits assumed): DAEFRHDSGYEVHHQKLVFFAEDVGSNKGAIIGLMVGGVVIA
Chain of equine butyrylcholinesterase (eqBChE) (P81908 whole entry): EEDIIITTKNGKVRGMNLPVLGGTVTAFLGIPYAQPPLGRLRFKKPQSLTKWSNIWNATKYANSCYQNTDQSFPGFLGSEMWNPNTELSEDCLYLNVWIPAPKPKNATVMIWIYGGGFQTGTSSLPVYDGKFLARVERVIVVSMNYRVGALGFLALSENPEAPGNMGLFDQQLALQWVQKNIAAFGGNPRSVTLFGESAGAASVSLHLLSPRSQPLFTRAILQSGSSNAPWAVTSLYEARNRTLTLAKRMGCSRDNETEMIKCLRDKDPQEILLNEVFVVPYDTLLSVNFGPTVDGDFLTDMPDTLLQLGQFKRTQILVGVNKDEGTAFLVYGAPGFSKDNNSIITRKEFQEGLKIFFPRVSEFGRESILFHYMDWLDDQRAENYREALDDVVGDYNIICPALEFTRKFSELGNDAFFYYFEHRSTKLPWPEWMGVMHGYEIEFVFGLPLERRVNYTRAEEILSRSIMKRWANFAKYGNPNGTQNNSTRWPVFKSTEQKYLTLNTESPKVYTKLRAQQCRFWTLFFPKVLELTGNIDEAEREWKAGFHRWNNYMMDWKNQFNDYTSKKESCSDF

What is called IC50 is the midpoint of a concentration-inhibition curve. Regarding `CCN(C)C(=O)Oc1cccc(NC(=O)c2ccc3nc(-c4ccccc4O)[nH]c3c2)c1` [Compound 4a, 3-(2-(2-Hydroxyphenyl)-1H-benzo[d]imidazole-6-carboxamido)phenyl Ethylmethylcarbamate], in experiment [1], the “SI (selectivity index)” value came out at 3.03 and the IC50 came out at 5.85 ± 0.03 µM. The IC50 in experiment [2] was 17.6 ± 0.6 µM. Also, in experiment [3], the “Appearance of Aβ42 fibrils in TEM images” value is listed as “shortest fibrils” and the Aβ42 fibril width came out at 4.1 nm.

Consider `CCN(C)C(=O)Oc1cccc(CNC(=O)c2ccc3nc(-c4ccccc4O)[nH]c3c2)c1` [Compound 4b, 3-((2-(2-Hydroxyphenyl)-1H-benzo[d]imidazole-6-carboxamido)methyl) Phenyl Ethylmethylcarbamate], for which, in experiment [1], the “SI (selectivity index)” value is listed as 2.17 and the concentration for half-maximal inhibition (IC50) is 6.5 ± 0.4 µM. This compound also showed an IC50 in experiment [2] of 14 ± 2 µM. In experiment [3], the “Appearance of Aβ42 fibrils in TEM images” value is on record as “shortest fibrils” and the Aβ42 fibril width is reported as 4.1 nm.

In the case of `CCN(C)C(=O)Oc1cccc(CCNC(=O)c2ccc3nc(-c4ccccc4O)[nH]c3c2)c1` [Compound 4c, 3-(2-(2-(2-Hydroxyphenyl)-1H-benzo[d]imidazole-6-carboxamido)ethyl) Phenylethylmethylcarbamate], in experiment [1], the “SI (selectivity index)” value was determined as 3.69 and the IC50 is 4.8 ± 0.1 µM. In experiment [2], the IC50 amounted to 17.7 ± 0.8 µM. Besides, in experiment [3], the “Appearance of Aβ42 fibrils in TEM images” value is reported as “quite elongated fibrils” and the Aβ42 fibril width came out at 4.1 nm.

As for `CCN(C)C(=O)Oc1ccc(CCCNC(=O)c2ccc3nc(-c4ccccc4O)[nH]c3c2)cc1` [Compound 4d, 4-(3-(2-(2-Hydroxyphenyl)-1H-benzo[d]imidazole-6-carboxamido)propyl) Phenyl Ethylmethylcarbamate], in experiment [1], the “SI (selectivity index)” value stood at 1.25 and the IC50 turned out to be 19.2 ± 0.7 µM. The compound also registered an IC50 in experiment [2] of 24 ± 1 µM. Further, in experiment [3], the “Appearance of Aβ42 fibrils in TEM images” value is reported as “quite elongated fibrils”; the Aβ42 fibril width was 6.7 nm and 6.7 ± 0.3 nm.

As to `CCN(C)C(=O)Oc1cccc(NC(=O)c2cccc3[nH]c(-c4ccccc4O)nc23)c1` [Compound 5a, 3-(2-(2-Hydroxyphenyl)-1H-benzo[d]imidazole-4-carboxamido)phenyl Ethylmethylcarbamate], in experiment [1], the “SI (selectivity index)” value is 19.6 and the IC50 was 0.9 ± 0.1 µM. In addition, the IC50 in experiment [2] came to 17.6 ± 0.4 µM. The compound further showed an Aβ42 fibril width in experiment [3] of 4.5 nm.

For `CCN(C)C(=O)Oc1cccc(CNC(=O)c2cccc3[nH]c(-c4ccccc4O)nc23)c1` [Compound 5b, 3-((2-(2-Hydroxyphenyl)-1H-benzo[d]imidazole-4-carboxamido)methyl) Phenyl Ethylmethylcarbamate], in experiment [1], the “SI (selectivity index)” value is listed as 105.7 and the IC50 was determined as 0.3 ± 0.01 µM. Further, 31.7 ± 0.1 µM corresponded to half-maximal inhibition in experiment [2] (IC50). In experiment [3], the “Appearance of Aβ42 fibrils in TEM images” value is “shortest fibrils”; the “Reduction of fibril width vs Aβ42 alone” value is reported as 22.4%; the Aβ42 fibril width was 3.8 nm and 3.8 ± 0.1 nm.

`CCN(C)C(=O)Oc1ccc(CCCNC(=O)c2cccc3[nH]c(-c4ccccc4O)nc23)cc1` [Compound 5d, 4-(3-(2-(2-Hydroxyphenyl)-1H-benzo[d]imidazole-4-carboxamido) Propyl) Phenyl Ethyl(methyl)carbamate]: in experiment [1], the “SI (selectivity index)” value amounted to 12.6 and the IC50 was determined as 1.7 ± 0.2 µM. The compound further gave an IC50 in experiment [2] of 21.4 ± 0.4 µM. Also, in experiment [3], the “Reduction of fibril width vs Aβ42 alone” value stood at 32.7%; the Aβ42 fibril width was 3.3 nm and 3.3 ± 0.2 nm.
